Laboratory results published in patent US12522598B2, “3-(2-(heteroaryl)-pyridin-4-yl)-5-(trifluoromethyl)-1,2,4-oxadiazole derivatives as HDAC6 inhibitors” (ORYZON GENOMICS, S.A., priority 2019, dated 2026).
Counter-ions that a name gives are not always drawn.

Biological target: T1, HDAC6 (Homo sapiens, UniProt Q9UBN7)
T1 construct: purchased BPS Bioscience 50006
T1 sequence (Q9UBN7 1-1215): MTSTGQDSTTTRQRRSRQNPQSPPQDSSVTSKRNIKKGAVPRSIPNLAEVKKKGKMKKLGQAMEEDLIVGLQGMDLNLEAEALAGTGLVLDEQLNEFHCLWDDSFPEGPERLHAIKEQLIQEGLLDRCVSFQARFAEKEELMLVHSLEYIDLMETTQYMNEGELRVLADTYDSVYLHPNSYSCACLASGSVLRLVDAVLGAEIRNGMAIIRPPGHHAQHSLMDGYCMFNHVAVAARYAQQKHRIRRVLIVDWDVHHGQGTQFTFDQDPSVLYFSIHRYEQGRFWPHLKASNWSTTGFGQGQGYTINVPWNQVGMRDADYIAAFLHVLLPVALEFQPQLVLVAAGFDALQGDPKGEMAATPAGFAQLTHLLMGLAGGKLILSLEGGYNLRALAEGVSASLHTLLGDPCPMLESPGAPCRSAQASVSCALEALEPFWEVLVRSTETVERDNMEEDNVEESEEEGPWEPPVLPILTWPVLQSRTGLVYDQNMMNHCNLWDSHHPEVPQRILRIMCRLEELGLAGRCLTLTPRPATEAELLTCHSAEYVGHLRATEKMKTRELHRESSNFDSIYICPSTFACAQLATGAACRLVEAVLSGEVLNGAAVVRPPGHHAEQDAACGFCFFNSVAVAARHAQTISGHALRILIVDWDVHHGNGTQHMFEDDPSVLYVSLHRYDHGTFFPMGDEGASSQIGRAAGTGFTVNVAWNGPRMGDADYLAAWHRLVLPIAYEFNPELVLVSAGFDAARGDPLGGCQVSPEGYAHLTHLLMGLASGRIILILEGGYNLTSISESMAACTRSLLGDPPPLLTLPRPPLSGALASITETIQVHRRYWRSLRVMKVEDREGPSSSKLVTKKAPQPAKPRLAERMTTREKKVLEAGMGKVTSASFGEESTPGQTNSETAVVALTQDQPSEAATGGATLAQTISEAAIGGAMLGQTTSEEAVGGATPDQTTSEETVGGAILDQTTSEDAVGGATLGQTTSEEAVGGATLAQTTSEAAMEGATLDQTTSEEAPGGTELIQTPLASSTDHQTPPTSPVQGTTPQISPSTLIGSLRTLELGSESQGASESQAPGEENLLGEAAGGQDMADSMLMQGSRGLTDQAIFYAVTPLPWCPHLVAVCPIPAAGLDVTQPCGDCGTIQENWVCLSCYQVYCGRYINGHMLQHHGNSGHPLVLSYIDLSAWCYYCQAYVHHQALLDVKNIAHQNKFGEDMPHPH
Assay: HDAC6 enzyme inhibition assay (fluorimetric)
Assay type: biochemical
Conditions: 3 hours preincubation with enzyme, fraction of positive control; for inhibition at 0.1 µM: 0.1 μM test compound, read-out: HDAC6 % inh @ 0.1 μM; for inhibition at 0.3 µM: 0.3 μM test compound, read-out: HDAC6 % inh @ 0.3 μM; for inhibition at 1 µM: 1 μM test compound, read-out: HDAC6 % inh @ 1 μM
Description: A fluorimetric assay was used to determine the biochemical activity of the inhibitors on HDAC6 in 96-Well Half Area Black Microplates (Corning #3686)+TopSeal-A Black Sealing Film (Perkin Elmer #6050173). Test compounds were dissolved in DMSO. Half-log serial dilutions of test compounds were prepared in DMSO and then diluted 1:10 in assay buffer (BPS Bioscience #50031).
2.5 μL of enzyme (BPS Bioscience #50006) was incubated with 2.5 μL of test compounds for 3 hours in assay buffer with 0.1 mg/mL Bovine Serum Albumin (Sigma-Aldrich #A7030) at 21° C. in 22.5 μL total volume. The enzymatic reaction was started with the addition of 2.5 μL of a fluorogenic acetylated peptide substrate (BPS Bioscience #50037). The final concentration of enzyme and substrate in the reaction were 8.8 nM and 9 μM, respectively. After 45 minutes of incubation at 37° C., the addition of 25 μL of a development solution (BPS
Bioscience #50030) releases a fluorophore whose amount is proportional to the amount of the deacetylated product. Fluorescence intensity was measured after 15 minutes incubation at 21° C. with a Tecan Infinite F200 microplate reader (excitation 360 nm-emission 460 nm).
The negative control (background) was represented by the reaction mix in the absence of the enzyme (with 0.1% DMSO), while the positive control of deacetylase activity was obtained in the absence of test compounds (with 0.1% DMSO) after background subtraction. Percentage of inhibition was calculated as a fraction of the positive control.

inhibition at 0.1 µM	inhibition at 0.3 µM	inhibition at 1 µM	Compound
78%	86%	97%	Cn1c(C(=O)N2CC[C@@H](O)C2)cc2cc(-c3cc(-c4noc(C(F)(F)F)n4)ccn3)ncc21 [Example 2g, (R)-(3-Hydroxypyrrolidin-1-yl)(1-methyl-5-(4-(5-(trifluoromethyl)-1,2,4-oxadiazol-3-yl)pyridin-2-yl)-1H-pyrrolo[2,3-c]pyridin-2-yl)methanone hydrochloride]
66%	89%	97%	COCCN(C)C(=O)c1cc2cc(-c3cc(-c4noc(C(F)(F)F)n4)ccn3)ncc2n1C [Example 2a, N-(2-Methoxyethyl)-N,1-dimethyl-5-(4-(5-(trifluoromethyl)-1,2,4-oxadiazol-3-yl)pyridin-2-yl)-1H-pyrrolo[2,3-c]pyridine-2-carboxamide hydrochloride]
69%	86%	95%	Cn1c(C(=O)N2CCNCC2)cc2cc(-c3cc(-c4noc(C(F)(F)F)n4)ccn3)ncc21 [Example 4, (1-Methyl-5-(4-(5-(trifluoromethyl)-1,2,4-oxadiazol-3-yl)pyridin-2-yl)-1H-pyrrolo[2,3-c]pyridin-2-yl)(piperazin-1-yl)methanone]
